What was measured:
[1] = Aqueous solubility of torcetrapib; format: physicochemical; conditions: aqueous solution (not specified further), water, about 22° C.
Protocol: The CETP inhibitor may be any compound capable of inhibiting the cholesteryl ester transfer protein. Solid amorphous dispersions are particularly useful for CETP inhibitors that have sufficiently low aqueous solubility, low bioavailability or slow rate of absorption such that it is desirable to increase their concentration in an aqueous environment of use. […] Many CETP inhibitors have even lower solubilities (some even less than 0.1 μg/mL), and require dramatic concentration enhancement to be sufficiently bioavailable upon oral dosing for effective plasma concentrations to be reached at practical doses.
CETP inhibitors, in particular torcetrapib, and methods for preparing such compounds are disclosed in detail in U.S. Pat. Nos. 6,197,786 and 6,313,142, in PCT Application Nos. WO 01/40190A1, WO 02/088085A2, and WO 02/088069A2, the disclosures of which are herein incorporated by reference. Torcetrapib has an unusually low solubility in aqueous environments such as the lumenal fluid of the human GI tract. The aqueous solubility of torceptrapib is less than about 0.04 μg/ml. Torcetrapib must be presented to the GI tract in a solubility-enhanced form in order to achieve a sufficient drug concentration in the GI tract in order to achieve sufficient absorption into the blood to elicit the desired therapeutic effect.

[2] = In vitro dissolution test using a microcentrifuge method (PBS); format: physicochemical; conditions: for AUC90 (area under the aqueous concentration versus time curve after 90 minutes) / C1200 (concentration at 1200 minutes) / MDC90 (maximum concentration of torcetrapib in solution during the first 90 minutes): receptor solution PBS; for Torcetrapib Concentration / AUC: PBS pH 6.5, 37° C.; for Torcetrapib Concentration: 1000 μg/mL if all drug dissolved
Protocol: The spray-dried solid amorphous dispersion was evaluated in an in vitro dissolution test using a microcentrifuge method. In this test, 7.2 mg of the spray-dried solid amorphous dispersion was placed into a microcentrifuge tube. The tube was placed in a 37° C. sonicating bath, and 1.8 mL phosphate buffered saline (PBS) at pH 6.5 and 290 mOsm/kg was added, resulting in a torcetrapib concentration of 1000 μg/mL if all of the drug had dissolved. The sample was quickly mixed using a vortex mixer for about 60 seconds. The sample was centrifuged at 13,000 G at 37° C. for 1 minute. The resulting supernatant solution was then sampled and diluted 1:6 (by volume) with methanol and then analyzed by high-performance liquid chromatography (HPLC). The contents of the tube was mixed on the vortex mixer and allowed to stand undisturbed at 37° C. until the next sample was taken. Samples were collected at 4, 10, 20, 40, 90, and 1200 minutes. The concentrations of drug obtained in these samples are shown in Table 1, which represent the average of duplicate tests.
As a control, an in vitro dissolution test was performed using the procedures described above except that 1.8 mg of crystalline drug was used.
The spray-dried solid amorphous dispersion was evaluated in an in vitro dissolution test using a microcentrifuge method. In this test, 4.5 mg of the spray -dried solid amorphous dispersion was placed into a microcentrifuge tube. The tube was placed in a 37° C. sonicating bath, and 1.8 mL phosphate buffered saline (PBS) at ph 6.5 and 290 mOsm/kg was added, resulting in a torcetrapib concentration of 1000 μg/mL if all of the drug dissolved. The sample was quickly mixed using a vortex mixer for about 60 seconds. The sample was centrifuged at 13,000 G at 37° C. for 1 minute. The resilting superatant solution was then sampled and diluted 1:6 (by volume) with methanol and then analyzed by high-performance liquid chromatography (HPLC). The contents of the tube was mixed on the vortex mixer and allowed to stand undisturbed at 37° C. until the next sample was taken. Samples were collected at 4, 10, 20, 40, 90, and 1200 minutes. The concentrations of drug obtained in these samples are shown in Table 9, which represent the average of duplicate tests. The results using crystalline drug are included in Table 9 for […]

[3] = Example 1 test (dispersion 25 wt % torcetrapib)
[4] = Example 12 test (dispersion 40 wt % torcetrapib, HPMCAS-HG)
[5] = time 0 min, Example 1 test (dispersion 25 wt % torcetrapib, HPMCAS-MG)
[6] = time 0 min, Example 12 test (dispersion 40 wt % torcetrapib, HPMCAS-HG)
[7] = time 4 min, Example 1 test (dispersion 25 wt % torcetrapib, HPMCAS-MG)
[8] = time 4 min, Example 12 test (dispersion 40 wt % torcetrapib, HPMCAS-HG)
[9] = time 10 min, Example 1 test (dispersion 25 wt % torcetrapib, HPMCAS-MG)
[10] = time 10 min, Example 12 test (dispersion 40 wt % torcetrapib, HPMCAS-HG)
[11] = time 20 min, Example 1 test (dispersion 25 wt % torcetrapib, HPMCAS-MG)
[12] = time 20 min, Example 12 test (dispersion 40 wt % torcetrapib, HPMCAS-HG)
[13] = time 40 min, Example 1 test (dispersion 25 wt % torcetrapib, HPMCAS-MG)
[14] = time 40 min, Example 12 test (dispersion 40 wt % torcetrapib, HPMCAS-HG)
[15] = time 90 min, Example 1 test (dispersion 25 wt % torcetrapib, HPMCAS-MG)
[16] = time 90 min, Example 12 test (dispersion 40 wt % torcetrapib, HPMCAS-HG)
[17] = time 1200 min, Example 1 test (dispersion 25 wt % torcetrapib, HPMCAS-MG)
[18] = time 1200 min, Example 12 test (dispersion 40 wt % torcetrapib, HPMCAS-HG)

- solubility [1]: < 0.04 µg/mL
- AUC90 (area under the aqueous concentration versus time curve after 90 minutes) [2, 3]: <88 min-μg/mL
- C1200 (concentration at 1200 minutes) [2, 3]: <1 µg/mL
- MDC90 (maximum concentration of torcetrapib in solution during the first 90 minutes) [2, 3]: <1 µg/mL
- AUC90 (area under the aqueous concentration versus time curve after 90 minutes) [2, 4]: <88 min-μg/mL
- C1200 (concentration at 1200 minutes) [2, 4]: <1 µg/mL
- MDC90 (maximum concentration of torcetrapib in solution during the first 90 minutes) [2, 4]: <1 µg/mL
- Torcetrapib Concentration [2, 5]: 0 µg/mL
- Torcetrapib Concentration [2, 6]: 0 µg/mL
- AUC [2, 5]: 0 min-μg/mL
- AUC [2, 6]: 0 min-μg/mL
- Torcetrapib Concentration [2, 7]: <1 µg/mL
- Torcetrapib Concentration [2, 8]: <1 µg/mL
- AUC [2, 7]: <2 min-μg/mL
- AUC [2, 8]: <2 min-μg/mL
- Torcetrapib Concentration [2, 9]: <1 µg/mL
- Torcetrapib Concentration [2, 10]: <1 µg/mL
- AUC [2, 9]: <8 min-μg/mL
- AUC [2, 10]: <8 min-μg/mL
- Torcetrapib Concentration [2, 11]: <1 µg/mL
- Torcetrapib Concentration [2, 12]: <1 µg/mL
- AUC [2, 11]: <18 min-μg/mL
- AUC [2, 12]: <18 min-μg/mL
- Torcetrapib Concentration [2, 13]: <1 µg/mL
- Torcetrapib Concentration [2, 14]: <1 µg/mL
- AUC [2, 13]: <38 min-μg/mL
- AUC [2, 14]: <38 min-μg/mL
- Torcetrapib Concentration [2, 15]: <1 µg/mL
- Torcetrapib Concentration [2, 16]: <1 µg/mL
- AUC [2, 15]: <88 min-μg/mL
- AUC [2, 16]: <88 min-μg/mL
- Torcetrapib Concentration [2, 17]: <1 µg/mL
- Torcetrapib Concentration [2, 18]: <1 µg/mL
- AUC [2, 17]: <1,200 min-μg/mL
- AUC [2, 18]: <1,200 min-μg/mL
SMILES: CCOC(=O)N1c2ccc(C(F)(F)F)cc2[C@@H](N(Cc2cc(C(F)(F)F)cc(C(F)(F)F)c2)C(=O)OC)C[C@H]1CC [Crystalline Drug, [2R,4S]-4-[(3,5-bis-trifluoromethyl-benzyl)-methoxycarbonyl-amino]-2-ethyl-6-trifluoromethyl-3,4-dihydro-2H-quinoline-1-carboxylic acid ethyl ester]
